From US20230014445A1, “ALLOSTERIC CHROMENONE INHIBITORS OF PHOSPHOINOSITIDE 3-KINASE (PI3K) FOR THE TREATMENT OF DISEASE” (Petra Pharma Corporation, priority 2021, published 2023)

Assays:
[1] = target: T1, human full length PIK3KA Wild-type (p110α/p85α complex) (Homo sapiens, UniProt P42336); assay: PI3K-Alpha Kinase (PIK3CA) biochemical activity, wild-type (ADP-Glo); conditions: 20 uM ATP
T1 construct: Recombinant, catalytically active human full length PIK3KA Wild-type and H1047R mutant were purchased; 6xHis (N); purchased EMD Millipore Sigma 14-602M
From the text: (§1) PI3K-Alpha Kinase (PIK3CA) Activity, Wild-Type and H1047R Mutant and Determining IC50 Values for Inhibitors
(§2) Recombinant, catalytically active human full length PIK3KA Wild-type and H1047R mutant were purchased as 1:1 complex of N-terminal 6×his tagged p110α (catalytic) and untagged p85α, (regulatory subunit) from EMD Millipore Sigma (cat. no. 14-602M and 14-792M, respectively). PIP2diC8 (Avanti Polar Lipids Inc., cat. no. 850185) or Soy PI (Avanti Polar Lipids Inc., cat. No. 840044P) was used as lipid substrate. PIP2diC8 or PI lyophilized powder was dissolved in milliQ water to a concentration of 1 mM just before use. 10 mM stock compounds in DMSO were serially diluted 1:3 to generate a 10-point curve and plated using an acoustic liquid handler system (Echo 550 series instrument, Labcyte). A 10× intermediate compound plate (200 uM starting compound concentration and 10% DMSO) was prepared before starting the reaction. A typical reaction mixture (50 uL) comprised 40 mM HEPES buffer, pH 7.4, 25 mM MgCl2, 0.01% v/v triton-X-100, 1% v/v DMSO, 20 mM NaCl, 1-5 nM WT or H1047R PI3K protein, 20 uM ATP, and 50 uM PIP2diC8 or Soy PI. 1% DMSO buffer alone without test compound was employed as MAX control (full activity in the absence of any inhibitor), and no enzyme control was used to determine the level of background Adenosine 5′-diphosphate (ADP) (MIN control). First, Wild-type (WT) and H1047R mutant protein in kinase buffer with all components except ATP were incubated with or without compound at 27° C. for 1 h. After the pre-incubation, the reaction was initiated by the addition of […] (20 uM final concentration). The reaction was allowed to proceed until about 10% conversion of ATP (2 uM ADP) at 27° C. After that time, 5 uL of reaction was mixed with 5 uL of ADP-Kinase Glo Reagent (ADP-Glo Kinase assay kit, Promega cat. no. V9102) supplemented with MgCl2 10 mM to stop the reaction and deplete the remaining ATP for 40 min at room temperature. Then, 10 uL of Kinase Detection Reagent (ADP-Glo Kinase assay kit, Promega cat. no. V9102) was added to simultaneously convert ADP to ATP and allow the newly synthesized ATP to be measured using a luciferase/luciferin reaction. After 30 min at room temperature the light generated was measured using a luminometer (EnVision plate reader, Perkin Elmer). Process data through Genedata-Screener tool. Relative IC50 values are determined using luminescence units by calculating percent inhibition with respect to on-plate “MIN” and “MAX” controls. Data was analyzed using a 4-parameter nonlinear logistic equation (four-parameter logistic concentration-response curve):
(§3) Y=bot+[(top−bot)/1+(x/IC50)slope]
(§4) where Y=% inhibition, X=concentration yielding y % inhibition, Bottom=minimum value of y attained by curve, Top=maximum value of y attained by curve and Slope=steepness of curve at IC50.
(§5) % Inh=[(median Max−x/median Max−median Min)]·100
(§6) IC50: concentration of compound that reduces a given response (ligand binding, enzyme response) by 50%. IC50 relative: concentration giving half the compound's maximum response.
(§7) For IC50 values shown in Table A, “A” means IC50<0.5 μM; “B” means IC50 ranging between 0.5 μM and 1.0 μM; “C” means IC50 ranging between 1 μM and 5 μM; “D” means IC50 ranging between 5 μM and 10 μM; “E” means IC50>10 μM.

[2] = target: T2, human full length PIK3KA H1047R mutant (p110α/p85α complex) (Homo sapiens, UniProt P42336, H1047R); assay: PI3K-Alpha Kinase (PIK3CA) biochemical activity, H1047R mutant (ADP-Glo); conditions: 20 uM ATP
T2 construct: Recombinant, catalytically active human full length PIK3KA Wild-type and H1047R mutant were purchased; 6xHis (N); purchased EMD Millipore Sigma 14-792M
T2 sequence (P42336 whole entry H1047R): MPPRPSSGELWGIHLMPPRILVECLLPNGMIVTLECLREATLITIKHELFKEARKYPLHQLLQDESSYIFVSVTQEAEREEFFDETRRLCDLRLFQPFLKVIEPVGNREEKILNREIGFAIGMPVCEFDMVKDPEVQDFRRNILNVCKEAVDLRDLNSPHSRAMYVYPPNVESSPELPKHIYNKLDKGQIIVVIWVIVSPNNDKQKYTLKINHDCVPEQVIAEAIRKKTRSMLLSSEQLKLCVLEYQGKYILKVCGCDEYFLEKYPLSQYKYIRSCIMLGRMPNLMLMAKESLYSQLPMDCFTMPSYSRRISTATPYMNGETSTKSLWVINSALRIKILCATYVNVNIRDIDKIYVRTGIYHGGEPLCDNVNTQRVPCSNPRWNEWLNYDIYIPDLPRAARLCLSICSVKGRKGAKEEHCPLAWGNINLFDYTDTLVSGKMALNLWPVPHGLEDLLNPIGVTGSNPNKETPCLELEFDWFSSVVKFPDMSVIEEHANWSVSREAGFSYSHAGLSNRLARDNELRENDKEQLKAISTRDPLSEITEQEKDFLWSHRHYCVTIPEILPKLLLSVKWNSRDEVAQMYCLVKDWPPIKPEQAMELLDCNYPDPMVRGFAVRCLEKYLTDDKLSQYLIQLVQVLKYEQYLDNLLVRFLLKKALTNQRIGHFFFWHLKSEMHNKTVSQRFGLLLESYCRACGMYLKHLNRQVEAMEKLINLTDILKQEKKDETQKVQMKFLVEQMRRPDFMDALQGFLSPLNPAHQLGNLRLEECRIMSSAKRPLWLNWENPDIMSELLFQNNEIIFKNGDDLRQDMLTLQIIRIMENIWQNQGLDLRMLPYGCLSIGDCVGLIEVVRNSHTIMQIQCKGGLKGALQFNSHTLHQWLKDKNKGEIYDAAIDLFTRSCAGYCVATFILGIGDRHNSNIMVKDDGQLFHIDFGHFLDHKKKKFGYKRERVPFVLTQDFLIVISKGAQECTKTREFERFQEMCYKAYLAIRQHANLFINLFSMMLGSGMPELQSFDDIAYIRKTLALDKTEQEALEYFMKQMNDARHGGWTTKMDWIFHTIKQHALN
T2 sequence (P27986 whole entry partner): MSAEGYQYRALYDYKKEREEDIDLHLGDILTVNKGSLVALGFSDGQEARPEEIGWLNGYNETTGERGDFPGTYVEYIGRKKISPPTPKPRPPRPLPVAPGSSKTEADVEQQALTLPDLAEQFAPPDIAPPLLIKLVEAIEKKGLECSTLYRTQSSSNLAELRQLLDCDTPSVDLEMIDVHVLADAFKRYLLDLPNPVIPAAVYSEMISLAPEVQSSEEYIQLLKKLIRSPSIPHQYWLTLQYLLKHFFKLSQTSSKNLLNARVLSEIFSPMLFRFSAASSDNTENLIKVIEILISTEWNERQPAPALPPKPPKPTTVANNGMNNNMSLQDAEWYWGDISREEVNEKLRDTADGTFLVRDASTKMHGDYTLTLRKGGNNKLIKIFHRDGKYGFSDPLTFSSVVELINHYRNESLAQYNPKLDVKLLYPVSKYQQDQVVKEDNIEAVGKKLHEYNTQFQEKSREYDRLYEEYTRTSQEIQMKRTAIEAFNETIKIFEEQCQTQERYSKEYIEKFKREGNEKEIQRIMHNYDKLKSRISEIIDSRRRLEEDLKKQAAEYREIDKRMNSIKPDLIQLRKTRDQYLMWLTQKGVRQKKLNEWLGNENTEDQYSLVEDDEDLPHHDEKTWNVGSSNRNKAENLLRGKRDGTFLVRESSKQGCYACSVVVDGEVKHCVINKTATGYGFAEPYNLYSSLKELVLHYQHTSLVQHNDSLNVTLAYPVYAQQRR
From the text: as §1, §2, §3, §4, §5, §6, §7

| SMILES | IC50 ([1]; Soy PI lipid substrate) [µM] | IC50 ([2]; Soy PI lipid substrate) [µM] | IC50 ([1]; PIP2diC8 lipid substrate) [µM] | IC50 ([2]; PIP2diC8 lipid substrate) [µM] |
| --- | --- | --- | --- | --- |
| Cc1cc(C(C)Nc2ccccc2C(=O)O)c2oc(-c3cnn(C)c3)cc(=O)c2c1 (stereo not shown) [Example 47, 2-[1-[6-Methyl-2-(1-methylpyrazol-4-yl)-4-oxo-chromen-8-yl]ethylamino]benzoic acid] | – | – | 1 to 5 | 0.5 to 1 |
| Cc1cc(C(C)Nc2ccccc2C(=O)O)c2oc(-c3ccccn3)cc(=O)c2c1 (single isomer, unassigned; isomer 2) [Example 18, 2-[1-[6-Methyl-4-oxo-2-(2-pyridyl)chromen-8-yl]ethylamino]benzoic acid, Isomer 2] | – | – | > 10 | > 10 |
| COc1ccc(-c2cc(=O)c3cc(C)cc(C(C)Nc4ccccc4C(=O)O)c3o2)cn1 (stereo not shown) [Example 12, 2-[1-[2-(6-Methoxy-3-pyridyl)-6-methyl-4-oxo-chromen-8-yl]ethylamino]benzoic acid 2,2,2-trifluoroacetic acid] | 1 to 5 | < 0.5 | – | – |
| Cc1cc(C(C)Nc2ccc(F)c(F)c2C(=O)O)c2oc(-c3cnn(-c4ccc(C#N)cc4)c3)cc(=O)c2c1 (single isomer, unassigned) [Example 95, 2,3-Difluoro-6-[1-[2-[1-(4-cyanophenyl)pyrazol-4-yl]-6-methyl-4-oxo-chromen-8-yl]ethylamino]benzoic acid, Isomer 1,2,2,2-trifluoroacetic acid] | > 10 | 1 to 5 | – | – |
| Cc1cc(C(C)Nc2ccc(Cl)nc2C(=O)O)c2oc(-c3cnccn3)cc(=O)c2c1 (single isomer, unassigned; isomer 1) [Example 28, 6-Chloro-3-[1-(6-methyl-4-oxo-2-pyrazin-2-yl-chromen-8-yl)ethylamino]pyridine-2-carboxylic acid, Isomer 1] | 1 to 5 | < 0.5 | – | – |
| Cc1cc(C(C)Nc2ccccc2C(=O)O)c2oc(-c3ncccn3)cc(=O)c2c1 (single isomer, unassigned; isomer 2) [Example 3, 2-[1-(6-Methyl-4-oxo-2-pyrimidin-2-yl-chromen-8-yl)ethylamino]benzoic acid, Isomer 2] | > 10 | < 0.5 | – | – |
| Cc1cc(C(C)Nc2ccccc2C(=O)O)c2oc(-c3cnn(-c4ccc(OC(F)(F)F)cc4)c3)cc(=O)c2c1 (single isomer, unassigned) [Example 93, 2-[1-[6-Methyl-4-oxo-2-[1-[4-(trifluoromethoxy)phenyl]pyrazol-4-yl]chromen-8-yl]ethylamino]benzoic acid, Isomer 2,2,2,2-trifluoroacetic acid] | > 10 | 0.5 to 1 | – | – |
| Cc1cc(C(C)Nc2ccccc2C(=O)O)c2oc(-c3cnn(-c4cccc(C#N)c4)c3)cc(=O)c2c1 (single isomer, unassigned) [Example 54, 2-[1-[2-[1-(3-Cyanophenyl)pyrazol-4-yl]-6-methyl-4-oxo-chromen-8-yl]ethylamino]benzoic acid, Isomer 2,2,2,2-trifluoroacetic acid] | 1 to 5 | < 0.5 | – | – |
| Cc1cc(C(C)Nc2ccccc2C(=O)O)c2oc(-c3cnc(C)nc3)cc(=O)c2c1 (single isomer, unassigned; isomer 1) [Example 32, 2-[1-[6-Methyl-2-(2-methylpyrimidin-5-yl)-4-oxo-chromen-8-yl]ethylamino]benzoic acid, Isomer 1] | – | – | 5 to 10 | < 0.5 |

Other lines, results leading:

| IC50 ([1]; Soy PI lipid substrate) [µM] | IC50 ([2]; Soy PI lipid substrate) [µM] | IC50 ([1]; PIP2diC8 lipid substrate) [µM] | IC50 ([2]; PIP2diC8 lipid substrate) [µM] | SMILES |
| --- | --- | --- | --- | --- |
| 0.5 to 1 | < 0.5 | – | – | COc1cccc(-n2cc(-c3oc4c(C(C)Nc5ccccc5C(=O)O)cc(C)cc4c(=O)c3C)cn2)c1 (single isomer, unassigned) [Example 66, 2-[1-2-[1-(3-Methoxyphenyl)pyrazol-4-yl]-3,6-dimethyl-4-oxo-chromen-8-yl]ethylamino]benzoic acid, Isomer 1,2,2,2-trifluoroacetic acid] |
| 1 to 5 | < 0.5 | – | – | COc1cc(-n2cc(-c3cc(=O)c4cc(C)cc(C(C)Nc5ccccc5C(=O)O)c4o3)cn2)ccc1C#N (single isomer, unassigned) [Example 94, 2-[1-[2-[1-(4-Cyano-3-methoxy-phenyl)pyrazol-4-yl]-6-methyl-4-oxo-chromen-8-yl]ethylamino]benzoic acid, Isomer 2,2,2,2-trifluoroacetic acid] |
| 5 to 10 | < 0.5 | – | – | Cc1cc(C(C)Nc2ccccc2C(=O)O)c2oc(-c3ccc(C(F)(F)F)nc3)cc(=O)c2c1 (stereo not shown) [Example 8, 2-[1-[6-Methyl-4-oxo-2-[6-(trifluoromethyl)-3-pyridyl]chromen-8-yl]ethylamino]benzoic acid 2,2,2-trifluoroacetic acid] |
| 1 to 5 | < 0.5 | – | – | Cc1cc(C(C)Nc2ccccc2C(=O)O)c2oc(-c3ncccn3)c(C)c(=O)c2c1 (single isomer, unassigned; isomer 1) [Example 34, 2-[1-(3,6-Dimethyl-4-oxo-2-pyrimidin-2-yl-chromen-8-yl)ethylamino]benzoic acid, Isomer 1] |
| – | – | 1 to 5 | < 0.5 | Cc1cc(C(C)Nc2ccccc2C(=O)O)c2oc(-c3cnccn3)cc(=O)c2c1 (single isomer, unassigned; isomer 1) [Example 15, 2-[1-(6-Methyl-4-oxo-2-pyrazin-2-yl-chromen-8-yl)ethylamino]benzoic acid, Isomer 1] |
| 1 to 5 | < 0.5 | – | – | Cc1cc(C(C)Nc2ccccc2C(=O)O)c2oc(-c3cnn(-c4ccc(C#N)cc4)c3)cc(=O)c2c1 (single isomer, unassigned) [Example 64, 2-[1-2-[1-(4-Cyanophenyl)pyrazol-4-yl]-6-methyl-4-oxo-chromen-8-yl]ethylamino]benzoic acid, Isomer 2,2,2,2-trifluoroacetic acid] |
| 5 to 10 | 0.5 to 1 | – | – | COc1ccnc(-c2cc(=O)c3cc(C)cc(C(C)Nc4ccccc4C(=O)O)c3o2)c1 (single isomer, unassigned) [Example 43, 2-[1-[2-(4-Methoxy-2-pyridyl)-6-methyl-4-oxo-chromen-8-yl]ethylamino]benzoic acid, Isomer 2,2,2,2-trifluoroacetic acid] |
| 1 to 5 | 0.5 to 1 | – | – | Cc1cc(C(C)Nc2ccccc2C(=O)O)c2oc(-c3cc(C#N)ccn3)cc(=O)c2c1 (stereo not shown) [Example 10, 2-[1-[2-(4-Cyano-2-pyridyl)-6-methyl-4-oxo-chromen-8-yl]ethylamino]benzoic acid 2,2,2-trifluoroacetic acid] |
| > 10 | < 0.5 | – | – | Cc1cc(C(C)Nc2ccccc2C(=O)O)c2oc(-c3nnc(-c4ccc(C#N)cc4)o3)cc(=O)c2c1 (single isomer, unassigned; isomer 2) [Example 90, 2-[1-[2-[5-(4-Cyanophenyl)-1,3,4-oxadiazol-2-yl]-6-methyl-4-oxo-chromen-8-yl]ethylamino]benzoic acid, Isomer 2] |
| 1 to 5 | < 0.5 | – | – | Cc1cc(C(C)Nc2ccccc2C(=O)O)c2oc(-c3ccccn3)cc(=O)c2c1 (single isomer, unassigned; isomer 1) [Example 17, 2-[1-[6-Methyl-4-oxo-2-(2-pyridyl)chromen-8-yl]ethylamino]benzoic acid, Isomer 1] |
| 5 to 10 | < 0.5 | – | – | Cc1cc(C(C)Nc2ccccc2C(=O)O)c2oc(-c3cnn(-c4ccc(C(F)(F)F)cc4)c3)cc(=O)c2c1 (single isomer, unassigned) [Example 87, 2-[1-[6-Methyl-4-oxo-2-[1-[4-(trifluoromethyl)phenyl]pyrazol-4-yl]chromen-8-yl]ethylamino]benzoic acid, Isomer 2,2,2,2-trifluoroacetic acid] |
